Experimental data taken from US20060183221A1, “Method for neural differentiation of embryonic stem cells using protease passaging techniques” (priority 2003, published 2006).

Experiments:
[1] = test system: differentiating mouse ES cells (ES-J1); test: Apoptosis (TUNEL staining) in differentiating mouse ES cells incubated with ceramide analogs; type: cell-based; details: for cell death: 20 hours with 75 μM S18; for TUNEL stained cells: 15 hours with 75 μM S16 or S18, or 35 μM C2-ceramide
Experimental: In vitro neural differentiation of mouse ES cells (ES-J1, ES-D3) followed a serum deprivation protocol as described previously (Hancock, et al., 2000, Biochem. Biophys. Res. Commun. 271: 418-421). The differentiation stages are outlined in FIG. 2. Briefly, ES cells were grown on gamma-irradiated feeder fibroblasts for four days in Knockout DMEM/15% Knockout serum replacement, supplemented with ESGRO (LIF; Chemicon; Cat No. ESG1106) at a concentration of […] medium. ES cells were then grown for another four days on gelatin-coated bacterial culture dishes without a fibroblast feeder layer, and were then grown for three days in Knockout DMEM/15% heat-inactivated ES qualified Fetal Bovine Serum, supplemented with 10^3 units LIF per ml of medium. Upon trypsinization, ES cells were transferred to bacterial culture dishes without gelatin, and embryoid body (EB) formation was induced for four days in Knockout DMEM/10% heat-inactivated ES qualified FBS without LIF (EB4 stage). On the fifth day, floating and loosely attached EBs were rinsed off and transferred to tissue culture dishes. The EBs were allowed to attach to the tissue culture dish surface by incubation for another 24 hours in Knockout DMEM with 10% heat-inactivated ES qualified fetal bovine serum. Neural differentiation due to serum deprivation was induced by cultivation of the EBs for three days in DMEM/F12 (50/50), supplemented with 1×N2 (Invitrogen/Life Technologies; Cat No. 17502, dilution of 1: 100) but without serum (EB8 stage). Serum-deprived EBs were then trypsinized, plated on poly-L-ornithine/laminin-coated tissue culture dishes and grown for four days in DMEM/F12 (50/50), supplemented with N2 and 10 ng/ml FGF-2, but without serum. his incubation period is referred to as neuroprogenitor (NP) stage due to commitment of neuroepithelial precursor cells to neuroprogenitor cells. These cells have committed during the EB stages and were expanded during the NP stage. NPs grown for 48 hours upon replating of trypsinized EBs were referred to as the NP2 stage. On the fifth day of NP formation, the medium was changed to Neurobasal (Invitrogen/Life Technologies; Cat No. 21103-049), with 5% heat-inactivated FBS, and the cells were incubated for another seven days. During this time, NPs fully differentiate to glial cells and neurons. Cells cultured for 24 hours or 96 hours upon changing the medium were referred to as the D1 or D4 stage, respectively.
ES cells were cultured and differentiated to the EB4, EB8, NP2, or D4 stage following the protocol as described above. The ceramide analog S18 was dissolved in ethanol at a concentration of 100 mM and then added to the cells at a final concentration of 75 μM in medium. The cells at the EB8 stage were incubated for 48 hours in the presence of the ceramide analog and were then transplanted into mouse brains.
Differentiating ES cells were grown on cover slips and fixed with 4% paraformaldehyde in phosphate-buffered saline (PBS). Fixed cells were permeabilized with 0.5% Triton X-100 in PBS for 5 minutes at room temperature and unspecific binding sites were saturated by incubation with 3% ovalbumin in PBS for 1 hour at 37° C. The cover slips were then incubated with 5 μg/ml primary antibody (anti-ceramide clone 15B4 mouse IgM, Alexis; anti-PAR-4 rabbit IgG, Santa Cruz; anti-PCNA rabbit IgG, Santa Cruz; anti-nestin clone 401 rat IgG, BD Pharmingen) in 0.1% ovalbumin/PBS, followed by incubation with the appropriate fluorescence-labeled secondary antibody (5 μg/ml Alexa 546 conjugated anti-mouse IgG, Molecular Probes; Alexa 488 conjugated anti-rabbit IgG, Molecular Probes, Cy3 conjugated anti-mouse IgM, Jackson) for 2 hours at 37° C. The nuclei were stained by treatment with 2 μg/ml Hoechst 33258 in PBS for 30 minutes at room temperature. Apoptotic nuclei were stained using the fluorescein FragEL TUNEL assay (Oncogene) according to the manufacturer's instructions. […]

[2] = test system: seeded sfEBMs derived from domed HESC colonies; test: S18 treatment of seeded serum free embryoid bodies (sfEBMs), cell death by morphology and DAPI staining; type: cell-based, human
Source text: sfEBMs were derived from domed HESC colonies, grown in suspension for 24 days with one passage, and seeded to polyornithine/laminin coated chamber slides in DMEM/F12, supplemented with 1×N2 (Gibco), and 1% FCS.
Apoptosis in seeded serum free embryoid bodies was monitored by morphological observation of cell death and DAPI staining to reveal apoptotic nuclei. Apoptotic nuclei were observed as obviously fragmented and degenerating nuclei, with small punctuate patterns of DAPI staining. Rosette regions from essentially serum free embryoid bodies in suspension were passaged further in the same medium, either withdrawing S18 or culturing the embryoid bodies for an additional 4 to 8 days in the presence of S18. Rosette regions were then seeded onto polyornithine/laminin coated slides for analysis of proliferation and differentiation to neural lineages.

## CCCCCCCC/C=C\CCCCCCCC(=O)NC(CO)CO [S18, N-(2-hydroxy-1-(hydroxymethyl)ethyl)-oleoylamide]
[1]; EB8 and NP2 stages
  cell death: high degree of cell death
[1]; EB8 stage
  TUNEL stained cells: 45±10%
[1]; NP2 stage
  TUNEL stained cells: 70±10%
[1]; differentiated neurons
  cell death: unaffected
[2]; 6, 8 or 10 μM S18
  time until the effect was observed: ≤ 24 h
[2]; 6, 8 or 10 μM S18 for 36 hours
  effect on neural rosette structures: did not appear to be adversely affected
  induction of apoptosis in the culture: induced apoptosis of a large proportion of the culture
[2]; 36 hours exposure to 6 μM S18
  cell death: a high proportion of cells within these cultures have been killed
[2]; 36 hours exposure to 8 μM S18
  cell death: a high degree of cell death is apparent
